The source of these data is US9023789B2, “Amylin analogs and pharmaceutical compositions thereof” (Novo Nordisk A/S, priority 2012, dated 2015).

In brackets after ≈: the same amount, converted by molar mass. Read-outs that look alike come from different tables or passages of the source. Numbered stars: 1 amine (or outer) side, 2 acyl side, 3 side chain; on linkers, the order of the positions; unused ones are H or OH. Bridge positions count the residues as written; N and C are the ends. Side chains are listed from the residue outwards. Peptide text beside a SMILES is read from it. * marks the point of attachment. C20 diacid = O=C(O)CCCCCCCCCCCCCCCCCCC(=O)*; γGlu = O=C(O)[C@H](CCC(=O)[*:2])N[*:1]; AEEA = NCCOCCOCC(=O)O

Series [1] is described as follows: ASSAY (IV) determination of solubility. Type of series: physicochemical. Put shortly: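 Polypeptide in water at […] mixed 1:1 with 100 mM buffers of pH 3.0-8.0 (glycylglycine pH 3-5, bistrispropane pH 6-8). Held 18 h at room temperature, then centrifuged; concentration remaining in solution measured by UPLC.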
The target in series [2] is T1, rat amylin receptor (rat calcitonin receptor + rat RAMP 3) (Rattus norvegicus, UniProt P32214+Q9JJ73).
T1 construct: expressed in transfected cells; host or cells: BHK tk'ts 13 (transient, FuGENE 6), membranes
T1 sequence (P32214 25-479 isoform P32214-2 limits assumed): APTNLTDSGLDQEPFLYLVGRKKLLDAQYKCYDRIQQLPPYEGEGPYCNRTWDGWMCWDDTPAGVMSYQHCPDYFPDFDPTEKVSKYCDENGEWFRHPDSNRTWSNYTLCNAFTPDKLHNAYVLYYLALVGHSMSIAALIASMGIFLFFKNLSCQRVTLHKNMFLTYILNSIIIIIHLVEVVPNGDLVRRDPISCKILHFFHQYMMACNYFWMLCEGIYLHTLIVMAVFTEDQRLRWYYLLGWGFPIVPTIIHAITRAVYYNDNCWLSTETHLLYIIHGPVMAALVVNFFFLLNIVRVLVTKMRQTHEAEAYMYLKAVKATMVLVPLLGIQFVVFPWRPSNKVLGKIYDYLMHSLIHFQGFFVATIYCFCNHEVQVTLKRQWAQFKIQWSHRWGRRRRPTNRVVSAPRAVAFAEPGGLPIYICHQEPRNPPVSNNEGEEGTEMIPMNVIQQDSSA
T1 sequence (Q9JJ73 23-147 partner): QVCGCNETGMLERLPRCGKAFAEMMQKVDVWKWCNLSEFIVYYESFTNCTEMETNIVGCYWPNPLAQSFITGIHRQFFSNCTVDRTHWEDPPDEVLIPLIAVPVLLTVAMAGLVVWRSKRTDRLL
In words: ASSAY (VI) binding to the rat amylin receptor. Put shortly: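 Binding to the rat amylin receptor was determined with membrane preparations. The receptor was expressed by transiently transfecting BHK tk′ts 13 cells with rat calcitonin receptor, using FuGENE® 6 (Roche) according to the manufacturer's recommendations. Roughly 48 hours later the cells were harvested and their membranes isolated.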

The target in series [3] is T2, rat calcitonin receptor (Rattus norvegicus, UniProt P32214).
T2 construct: expressed in transfected cells; host or cells: BHK tk'ts 13 (transient, FuGENE 6), membranes
T2 sequence (P32214 25-479 isoform P32214-2 limits assumed): T1 sequence (P32214 25-479 isoform P32214-2 limits assumed)
In words: ASSAY (VIII) binding to the rat calcitonin receptor. The following applies: Table 7, read-out: rCTR bind IC50. Put shortly: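 Membranes were prepared from BHK tk′ts 13 cells transiently transfected with rat calcitonin receptor. Cells were grown in DMEM with 10% FBS and harvested approximately 48 hours after transfection.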

Setting [4] is: bistrispropane buffer, pH 6.5, read-out: Solubility pH 6.5 Concentration.
The mark [5] stands for this setting: bistrispropane buffer, pH 7.5, read-out: Solubility pH 7.5 Concentration.
The mark [6] stands for this setting: bistrispropane buffer, pH 6.0, read-out: Solubility pH 6.0 Concentration.
Where [7] appears, read: bistrispropane buffer, pH 7.0, read-out: Solubility pH 7.0 Concentration.
The mark [8] stands for this setting: bistrispropane buffer, pH 8.0, read-out: Solubility pH 8.0 Concentration.
The mark [9] stands for this setting: glycylglycine buffer, pH 3.0, read-out: Solubility pH 3.0 Concentration.
Where [10] appears, read: glycylglycine buffer, pH 4.0, read-out: Solubility pH 4.0 Concentration.
The mark [11] stands for this setting: glycylglycine buffer, pH 5.0, read-out: Solubility pH 5.0 Concentration.
The mark [12] stands for this setting: Table 7, binding to rat amylin receptor, read-out: rAmylin-R bind IC50.
Where [13] appears, read: Table 7, rat binding selectivity, rCTR IC50 / rAmylin-R IC50.
Where [14] appears, read: Table 7a (preferred compounds), rat binding selectivity, rCTR IC50 / rAmylin-R IC50.
Where [15] appears, read: ratio of rCTR bind IC50 to rAmylin-R bind IC50.

Usually IC50 stands for the concentration needed to halve the response being measured. Consider `CC[C@H](C)[C@H](NC(=O)[C@H](C)NC(=O)CNC(=O)[C@H](Cc1ccccc1)NC(=O)[C@H](CC(N)=O)NC(=O)[C@@H]1CCCN1C(=O)[C@H](CO)NC(=O)[C@H](CO)NC(=O)[C@H](Cc1c[nH]cn1)NC(=O)[C@H](CCCNC(=N)N)NC(=O)[C@H](CC(C)C)NC(=O)[C@H](Cc1ccccc1)NC(=O)[C@H](CCCNC(=N)N)NC(=O)[C@H](C)NC(=O)[C@H](CC(C)C)NC(=O)[C@H](CCCNC(=N)N)NC(=O)[C@H](CCC(N)=O)NC(=O)[C@@H](NC(=O)[C@H](C)NC(=O)[C@@H]1CSSC[C@H](NC(=O)[C@@H](N)CCCCNC(=O)CC[C@H](NC(=O)CCCCCCCCCCCCCCCCCCC(=O)O)C(=O)O)C(=O)N[C@@H](CC(N)=O)C(=O)N[C@@H]([C@@H](C)O)C(=O)N[C@@H](C)C(=O)N[C@@H]([C@@H](C)O)C(=O)N1)[C@@H](C)O)C(=O)N1CCC[C@H]1C(=O)N[C@@H](CO)C(=O)N[C@@H](CO)C(=O)N[C@H](C(=O)N1CCC[C@H]1C(=O)N[C@H](C(=O)NCC(=O)N[C@@H](CO)C(=O)N[C@@H](CC(N)=O)C(=O)N[C@H](C(=O)N[C@@H](Cc1ccc(O)cc1)C(N)=O)[C@@H](C)O)C(C)C)[C@@H](C)O` [Example 63] (H-K([γGlu-C20 diacid])CNTATCATQRLARFLRHSSPNFGAIPSSTPVGSNTY-NH2; disulfide 2-7 (inferred); N-terminus assumed), for which the solubility at 18 h in series [1] (setting [4]), in series [1] (setting [5]), in series [1] (setting [6]), in series [1] (setting [7]), in series [1] (setting [8]) and in series [1] (setting [9]) was at least 200 µM in each case. Further, the solubility at 18 h in series [1] (setting [10]) and in series [1] (setting [11]) was at least 200 µM in each case. Also, the IC50 in series [2] (setting [12]) stood at 3.48 nM; in series [3], 124 nM. Further, the “Ratio rCT/rAmylin binding” value in series [2] (setting [13]), in series [2] (setting [14]) and in series [2] (setting [15]) was 35.6 throughout.
In the case of `CC[C@H](C)[C@H](NC(=O)[C@H](C)NC(=O)CNC(=O)[C@H](Cc1ccccc1)NC(=O)[C@H](CC(N)=O)NC(=O)[C@@H]1CCCN1C(=O)[C@H](CO)NC(=O)[C@H](CO)NC(=O)[C@H](Cc1c[nH]cn1)NC(=O)[C@H](CCCNC(=N)N)NC(=O)[C@H](CC(C)C)NC(=O)[C@H](Cc1ccccc1)NC(=O)CNC(=O)[C@H](C)NC(=O)[C@H](CC(C)C)NC(=O)[C@H](CCCNC(=N)N)NC(=O)[C@H](CCC(N)=O)NC(=O)[C@@H](NC(=O)[C@H](C)NC(=O)[C@@H]1CSSC[C@H](NC(=O)[C@@H](N)CCCCNC(=O)COCCOCCNC(=O)CC[C@H](NC(=O)CCCCCCCCCCCCCCCCCCC(=O)O)C(=O)O)C(=O)N[C@@H](CC(N)=O)C(=O)N[C@@H]([C@@H](C)O)C(=O)N[C@@H](C)C(=O)N[C@@H]([C@@H](C)O)C(=O)N1)[C@@H](C)O)C(=O)N1CCC[C@H]1C(=O)N[C@@H](CO)C(=O)N[C@@H](CO)C(=O)N[C@H](C(=O)N1CCC[C@H]1C(=O)N[C@H](C(=O)NCC(=O)N[C@@H](CO)C(=O)N[C@@H](CC(N)=O)C(=O)N[C@H](C(=O)N[C@@H](Cc1ccc(O)cc1)C(N)=O)[C@@H](C)O)C(C)C)[C@@H](C)O` [Example 71] (H-K([AEEA-γGlu-C20 diacid])CNTATCATQRLAGFLRHSSPNFGAIPSSTPVGSNTY-NH2; disulfide 2-7), the solubility at 18 h in series [1] (setting [4]), in series [1] (setting [5]), in series [1] (setting [6]), in series [1] (setting [7]), in series [1] (setting [8]) and in series [1] (setting [9]) was at least 200 µM throughout. In addition, the solubility at 18 h in series [1] (setting [10]) and in series [1] (setting [11]) was at least 200 µM in each case. The values for the IC50 in series [2] (setting [12]) and in series [3] were 0.276 nM and 44.8 nM, respectively. Moreover, the “Ratio rCT/rAmylin binding” value in series [2] (setting [13]), in series [2] (setting [14]) and in series [2] (setting [15]) was 162.4 throughout.
With `CC[C@H](C)[C@H](NC(=O)[C@H](C)NC(=O)CNC(=O)[C@H](Cc1ccccc1)NC(=O)[C@H](CC(N)=O)NC(=O)[C@@H]1CCCN1C(=O)[C@H](CO)NC(=O)[C@H](CO)NC(=O)[C@H](Cc1c[nH]cn1)NC(=O)[C@H](CCCNC(=N)N)NC(=O)[C@H](CC(C)C)NC(=O)[C@H](Cc1ccccc1)NC(=O)[C@H](CO)NC(=O)[C@H](C)NC(=O)[C@H](CC(C)C)NC(=O)[C@H](CCCNC(=N)N)NC(=O)[C@H](CCC(N)=O)NC(=O)[C@@H](NC(=O)[C@H](C)NC(=O)[C@@H]1CSSC[C@H](NC(=O)[C@@H](N)CCCCNC(=O)COCCOCCNC(=O)CC[C@H](NC(=O)CCCCCCCCCCCCCCCCCCC(=O)O)C(=O)O)C(=O)N[C@@H](CC(N)=O)C(=O)N[C@@H]([C@@H](C)O)C(=O)N[C@@H](C)C(=O)N[C@@H]([C@@H](C)O)C(=O)N1)[C@@H](C)O)C(=O)N1CCC[C@H]1C(=O)N[C@@H](CO)C(=O)N[C@@H](CO)C(=O)N[C@H](C(=O)N1CCC[C@H]1C(=O)N[C@H](C(=O)NCC(=O)N[C@@H](CO)C(=O)N[C@@H](CC(N)=O)C(=O)N[C@H](C(=O)N[C@@H](Cc1ccc(O)cc1)C(N)=O)[C@@H](C)O)C(C)C)[C@@H](C)O` [Example 73] (H-K([AEEA-γGlu-C20 diacid])CNTATCATQRLASFLRHSSPNFGAIPSSTPVGSNTY-NH2; disulfide 2-7 (inferred)), the solubility at 18 h was at least 200 µM in series [1] (pH 3.0, read-out: Solubility pH 3.0 Concentration); at least 200 µM in series [1] (pH 4.0, read-out: Solubility pH 4.0 Concentration); at least 200 µM in series [1] (pH 5.0, read-out: Solubility pH 5.0 Concentration); at least 200 µM in series [1] (pH 6.0, read-out: Solubility pH 6.0 Concentration); at least 200 µM in series [1] (pH 6.5, read-out: Solubility pH 6.5 Concentration); at least 200 µM in series [1] (pH 7.0, read-out: Solubility pH 7.0 Concentration). The solubility at 18 h in series [1] (pH 7.5, read-out: Solubility pH 7.5 Concentration) is at least 200 µM; in series [1] (pH 8.0, read-out: Solubility pH 8.0 Concentration), 172 µM (≈ 771 µg/mL). For the same molecule, the IC50 in series [2] amounted to 0.283 nM; in series [3] it was 50.3 nM. For the same molecule, the “Ratio rCT/rAmylin binding” value in series [2] (setting [13]), in series [2] (setting [14]) and in series [2] (setting [15]) was 177.7 each time.
Take `CC[C@H](C)[C@H](NC(=O)[C@H](C)NC(=O)CNC(=O)[C@H](Cc1ccccc1)NC(=O)[C@H](CC(N)=O)NC(=O)[C@@H]1CCCN1C(=O)[C@H](CO)NC(=O)[C@H](CO)NC(=O)[C@H](Cc1c[nH]cn1)NC(=O)[C@H](CCCNC(=N)N)NC(=O)[C@H](CC(C)C)NC(=O)[C@H](Cc1ccccc1)NC(=O)[C@H](CCCNC(=N)N)NC(=O)[C@H](C)NC(=O)[C@H](CC(C)C)NC(=O)[C@H](CCCNC(=N)N)NC(=O)[C@H](CCC(N)=O)NC(=O)[C@@H](NC(=O)[C@H](C)NC(=O)[C@@H]1CSSC[C@H](NC(=O)[C@@H](N)CCCCNC(=O)CC[C@H](NC(=O)CCCCCCCCCCCCCCCCCCC(=O)O)C(=O)O)C(=O)N[C@@H](CC(N)=O)C(=O)N[C@@H]([C@@H](C)O)C(=O)N[C@@H](C)C(=O)N[C@@H]([C@@H](C)O)C(=O)N1)[C@@H](C)O)C(=O)N1CCC[C@H]1C(=O)N[C@@H](CO)C(=O)N[C@@H](CO)C(=O)N[C@H](C(=O)N[C@@H](CC(N)=O)C(=O)N[C@H](C(=O)NCC(=O)N[C@@H](CO)C(=O)N[C@@H](CC(N)=O)C(=O)N[C@H](C(=O)N[C@@H](Cc1ccc(O)cc1)C(N)=O)[C@@H](C)O)C(C)C)[C@@H](C)O` [Example 83]: the solubility at 18 h in series [1] (setting [4]), in series [1] (setting [5]), in series [1] (setting [6]), in series [1] (setting [7]), in series [1] (setting [8]) and in series [1] (setting [9]) was at least 200 µM throughout. Besides, the solubility at 18 h in series [1] (setting [10]) and in series [1] (setting [11]) was at least 200 µM in each case. Moreover, the IC50 is 2.83 nM in series [2] (setting [12]) and 140 nM in series [3]. Moreover, the “Ratio rCT/rAmylin binding” value in series [2] (setting [13]), in series [2] (setting [14]) and in series [2] (setting [15]) was 49.7 each time.
